Reference: patent EP0959065B1, “Pyrethroid compound and composition for controlling pest containing the same” (priority 1998, dated 1999)

Key:
[1] = tested on: houseflies (Musca domestica); assay: Mosquito coil fumigation test in glass chamber (knock-down and lethal activity); format: in vivo; parameters: key to Knocking-down activity: Excellent: All the insects were knocked down or dead (the total in the two replications); Good: 1 to 2 insects were not knocked down or dead (ditto); Mediocre: 3 to 4 insects were not knocked down or dead (ditto); Bad: 5 or more insects were not knocked down or dead (ditto); conditions: two replications; for Knocking-down activity: 0.3 g coil burnt 30 seconds in 0.34 m^3 chamber, knocked-down counted at ten minutes, 10 adult houseflies; for Lethal activity: insects recovered at 25 minutes, dead and alive counted in 24 hours
Excerpt: A base material for mosquito coil (obtained by stirring a 4:3:3 mixture of Tabu powder, Pyrethrum marc and wood powder, adding water thereto, thoroughly kneading the resulting mixture, and molding and drying the kneaded mixture) was uniformly impregnated with a solution of the present compound in acetone so that the material contains a predetermined amount of the compound. The resultant base material was air-dried to obtain a mosquito coil.
Ten adult houseflies (Musca domestica) (male/ female = 5/5) were released in a glass chamber (70cm cube, capacity: 0.34 m^3). 0.3 Gram of a mosquito coil containing the present compound prepared according to the procedure described above was set on a holder in the center of the bottom of the chamber, ignited at one end thereof, and taken out of the chamber after 30 seconds of combustion. The knocked-down houseflies were counted in ten minutes after the setting of the coil. In 25 minutes after the setting of the coil, the test insects were recovered into a cup for recovery and given water and diet. The dead and alive were counted in 24 hours. Two replications of the test were carried out. The same test procedure was repeated for 4-methyl-2,3,5,6-tetrafluorobenzyl (1R)-cis-3-(2,2-dichlorovinyl)-2,2-dimethylcyclopropanecarboxylate (hereinafter referred to as reference compound A) and for a mixture of 50% by weight of 4-methyl-2,3,5,6-tetrafluorobenzyl (1RS)-cis-3-(2,2-dichlorovinyl)-2,2-dimethylcyclopropanecarboxylate and 50% by weight of 4-methyl-2,3,5,6-tetrafluorobenzyl (1RS)-trans-3-(2,2-dichlorovinyl)-2,2-dimethylcyclopropanecarboxylate (this mixture is hereinafter referred to as reference compound B). […] In the table, the knocking-down activity and the lethal activity are indicated according to the following criterion: • Excellent: All the insects were knocked down or dead (the total in the two replications). • Good: 1 to 2 insects were not knocked down or dead (ditto). • Mediocre: 3 to 4 insects were not knocked down or dead (ditto). • Bad: 5 or more insects were not knocked down or dead (ditto).

[2] = Calculation of safety factor (rat LD50 / housefly LD50); conditions: Toxicity to rat (LD50 value) / Insecticidal activity against housefly (LD50 value)
Method: The safety factor was calculated from the insecticidal activity against housefly and the toxicity to rat according to the following equation. […] Safety factor = Toxicity to rat (LD50 value)] / [Insecticidal activity against housefly (LD50 value)] [formula]

female adult houseflies = assay: Insecticidal activity against housefly, topical application of acetone dilutions on the nota; format: in vivo; conditions: Musca domestica, 0.5 µl acetone dilution per insect on the nota, mortality after 24 hours
Method: The present compound was diluted with acetone to concentrations of 100, 50, 25, 12.5 and 6.25 ppm. Each of reference compounds A and B was also diluted with acetone to concentrations of 400, 200, 100, 50 and 25 ppm. Each of the dilutions thus prepared was applied on the nota of female adult houseflies in a volume of 0.5 µl per insect. The insects were given water and diet. After 24 hours, the dead and alive were counted for mortality. From the mortality, LD50 (mg/kg) value was determined.

[3] = Toxicity to rat, administration of corn oil dilutions; conditions: in vivo, male rats, dilution in corn oil, 10 ml/kg, mortality after 7 days
Method: Each of the present compound and reference compounds A and B was diluted with corn oil to predetermined concentrations. Each of the dilutions thus prepared was administered to male rats in an amount of 10 ml/kg. The rats were given water and diet. After 7 days, the dead and alive were counted for mortality. From the mortality, LD50 (mg/kg) value was determined.

Compound	Knocking-down activity ([1]; concentration 0.5 %W/W)	Lethal activity ([1]; concentration 0.5 %W/W)	Knocking-down activity ([1]; concentration 1.0 %W/W)	Lethal activity ([1]; concentration 1.0 %W/W)	Safety factor [2]	LD50 (female adult houseflies) [mg/kg]	LD50 at 7 days [3] [mg/kg]
mixture of 50% by weight of 4-methyl-2,3,5,6-tetrafluorobenzyl (1RS)-cis-3-(2,2-dichlorovinyl)-2,2-dimethylcyclopropanecarboxylate and 50% by weight of 4-methyl-2,3,5,6-tetrafluorobenzyl (1RS)-trans-3-(2,2-dichlorovinyl)-2,2-dimethylcyclopropanecarboxylate [Reference compound B]	Bad (5 or more insects were not knocked down or dead (ditto))	Bad (5 or more insects were not knocked down or dead (ditto))	Mediocre (3 to 4 insects were not knocked down or dead (ditto))	Bad (5 or more insects were not knocked down or dead (ditto))	<35		
Cc1c(F)c(F)c(COC(=O)[C@@H]2[C@H](C=C(Cl)Cl)C2(C)C)c(F)c1F [Reference compound A, 4-methyl-2,3,5,6-tetrafluorobenzyl (1R)-cis-3-(2,2-dichlorovinyl)-2,2-dimethylcyclopropanecarboxylate]	Bad (5 or more insects were not knocked down or dead (ditto))	Bad (5 or more insects were not knocked down or dead (ditto))			<36	2.8	< 100
Cc1c(F)c(F)c(COC(=O)[C@@H]2[C@@H](C=C(Cl)Cl)C2(C)C)c(F)c1F [Present compound, 4-methyl-2,3,5,6-tetrafluorobenzyl (1R)-trans-3-(2,2-dichlorovinyl)-2,2-dimethylcyclopropanecarboxylate]	Excellent	Good (1 to 2 insects were not knocked down or dead (ditto))			320	0.93	300
